In the kinase profiling compilation of Christmann-Franck et al. (2016):

Key:
Test in all cases: KINOMEscan competition binding
Details in all cases: compound 1.0 µM
[1] = molecular target: MAP2K5 (human) (UniProt Q13163)
[2] = molecular target: PLK3 (human) (UniProt Q9H4B4)
[3] = molecular target: CAMKK2 (human) (UniProt Q96RR4)
[4] = molecular target: PIK3CA (human) (UniProt P42336)
[5] = test system: PIK3CA (human), P42336 [H1047L]
[6] = molecular target: MAP2K4 (human) (UniProt P45985)
[7] = molecular target: EIF2AK1 (human) (UniProt Q9BQI3)
[8] = molecular target: TAOK3 (human) (UniProt Q9H2K8)
[9] = test system: MET (human), P08581 [Y1235D]
[10] = molecular target: MUSK (human) (UniProt O15146)
[11] = molecular target: STK36 (human) (UniProt Q9NRP7)
[12] = molecular target: FGFR1 (human) (UniProt P11362)
[13] = test system: PIK3CA (human), P42336 [M1043I]
[14] = molecular target: MAPK13 (human) (UniProt O15264)
[15] = molecular target: JAK2 JH1 catalytic (human) (UniProt O60674)
[16] = molecular target: RPS6KA2 KD1 (human) (UniProt Q15349)
[17] = molecular target: MAPK3 (human) (UniProt P27361)
[18] = molecular target: CRK2 (P.falciparum) (UniProt P61075)
[19] = molecular target: JAK1 JH1 catalytic (human) (UniProt P23458)
[20] = test system: EGFR (human), P00533 [G719C]
[21] = molecular target: TYRO3 (human) (UniProt Q06418)
[22] = molecular target: PTK2B (human) (UniProt Q14289)
[23] = molecular target: MERTK (human) (UniProt Q12866)
[24] = molecular target: PDGFRB (human) (UniProt P09619)
[25] = molecular target: PIP4K2C (human) (UniProt Q8TBX8)
[26] = molecular target: MAP3K7 (human) (UniProt O43318)
[27] = molecular target: FGFR3 (human) (UniProt P22607)
[28] = molecular target: STK32A (human) (UniProt Q8WU08)
[29] = molecular target: JAK3 JH1 catalytic (human) (UniProt P52333)
[30] = molecular target: RPS6KA2 KD2 (human) (UniProt Q15349)
[31] = molecular target: MET (human) (UniProt P08581)
[32] = molecular target: PIK3CD (human) (UniProt O00329)
[33] = molecular target: ULK3 (human) (UniProt Q6PHR2)
[34] = molecular target: STK35 (human) (UniProt Q8TDR2)
[35] = molecular target: ADCK3 (human) (UniProt Q8NI60)
[36] = molecular target: CDC42BPG (human) (UniProt Q6DT37)
[37] = test system: EGFR (human), P00533 [A750P; 747-749 del]
[38] = molecular target: TNNI3K (human) (UniProt Q59H18)
[39] = molecular target: STK39 (human) (UniProt Q9UEW8)
[40] = test system: PIK3CA (human), P42336 [E542K]
[41] = molecular target: STK10 (human) (UniProt O94804)
[42] = molecular target: CDK4 CCND3 (human) (UniProt P11802+P30281)
Sequence of CDK4 CCND3 (human) (P11802 whole entry, looked up): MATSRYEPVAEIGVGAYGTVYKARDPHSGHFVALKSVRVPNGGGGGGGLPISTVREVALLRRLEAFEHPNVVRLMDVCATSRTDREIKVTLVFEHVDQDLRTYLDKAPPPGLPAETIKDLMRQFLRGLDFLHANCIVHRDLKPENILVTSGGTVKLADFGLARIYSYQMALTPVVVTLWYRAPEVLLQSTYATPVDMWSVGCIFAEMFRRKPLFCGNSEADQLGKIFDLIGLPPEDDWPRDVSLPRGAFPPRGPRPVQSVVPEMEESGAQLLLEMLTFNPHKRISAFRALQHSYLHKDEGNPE
Sequence of CDK4 CCND3 (human) (P30281 whole entry, looked up): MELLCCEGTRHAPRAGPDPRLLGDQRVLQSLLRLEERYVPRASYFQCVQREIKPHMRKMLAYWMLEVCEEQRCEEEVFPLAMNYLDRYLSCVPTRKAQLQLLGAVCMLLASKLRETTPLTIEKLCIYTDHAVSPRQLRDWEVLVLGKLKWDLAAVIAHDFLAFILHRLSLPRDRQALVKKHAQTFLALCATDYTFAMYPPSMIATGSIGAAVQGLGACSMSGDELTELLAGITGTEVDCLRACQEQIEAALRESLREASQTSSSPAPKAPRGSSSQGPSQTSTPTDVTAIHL

Sequence of PIK3CD (human) (O00329 whole entry, looked up): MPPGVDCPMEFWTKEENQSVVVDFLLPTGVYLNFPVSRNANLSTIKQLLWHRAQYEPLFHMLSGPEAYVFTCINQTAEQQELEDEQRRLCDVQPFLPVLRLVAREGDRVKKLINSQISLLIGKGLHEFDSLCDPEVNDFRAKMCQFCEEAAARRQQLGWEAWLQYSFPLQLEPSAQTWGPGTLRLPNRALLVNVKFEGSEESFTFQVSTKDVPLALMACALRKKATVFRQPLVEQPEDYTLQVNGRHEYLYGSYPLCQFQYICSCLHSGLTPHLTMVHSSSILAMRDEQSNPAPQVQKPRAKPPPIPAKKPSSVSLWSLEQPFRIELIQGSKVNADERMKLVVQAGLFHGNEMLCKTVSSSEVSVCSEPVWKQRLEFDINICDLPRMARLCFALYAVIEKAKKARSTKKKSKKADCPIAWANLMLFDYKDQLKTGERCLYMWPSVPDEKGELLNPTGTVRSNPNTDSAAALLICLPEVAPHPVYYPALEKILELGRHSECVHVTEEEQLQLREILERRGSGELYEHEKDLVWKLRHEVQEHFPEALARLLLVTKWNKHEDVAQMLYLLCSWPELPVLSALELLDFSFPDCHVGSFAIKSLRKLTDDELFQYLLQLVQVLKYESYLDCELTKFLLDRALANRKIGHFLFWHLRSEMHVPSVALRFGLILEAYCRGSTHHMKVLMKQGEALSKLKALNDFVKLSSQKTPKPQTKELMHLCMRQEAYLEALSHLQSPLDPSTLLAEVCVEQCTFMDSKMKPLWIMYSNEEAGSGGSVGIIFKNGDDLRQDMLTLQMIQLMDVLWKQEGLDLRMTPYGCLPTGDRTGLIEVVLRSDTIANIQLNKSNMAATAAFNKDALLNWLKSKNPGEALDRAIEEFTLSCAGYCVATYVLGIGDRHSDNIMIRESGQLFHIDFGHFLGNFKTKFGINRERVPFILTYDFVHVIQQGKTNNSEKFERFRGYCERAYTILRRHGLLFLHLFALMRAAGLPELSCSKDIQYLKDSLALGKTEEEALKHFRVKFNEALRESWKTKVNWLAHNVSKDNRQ
Sequence of PIK3CA (human), P42336 [E542K] (P42336 whole entry E542K, looked up): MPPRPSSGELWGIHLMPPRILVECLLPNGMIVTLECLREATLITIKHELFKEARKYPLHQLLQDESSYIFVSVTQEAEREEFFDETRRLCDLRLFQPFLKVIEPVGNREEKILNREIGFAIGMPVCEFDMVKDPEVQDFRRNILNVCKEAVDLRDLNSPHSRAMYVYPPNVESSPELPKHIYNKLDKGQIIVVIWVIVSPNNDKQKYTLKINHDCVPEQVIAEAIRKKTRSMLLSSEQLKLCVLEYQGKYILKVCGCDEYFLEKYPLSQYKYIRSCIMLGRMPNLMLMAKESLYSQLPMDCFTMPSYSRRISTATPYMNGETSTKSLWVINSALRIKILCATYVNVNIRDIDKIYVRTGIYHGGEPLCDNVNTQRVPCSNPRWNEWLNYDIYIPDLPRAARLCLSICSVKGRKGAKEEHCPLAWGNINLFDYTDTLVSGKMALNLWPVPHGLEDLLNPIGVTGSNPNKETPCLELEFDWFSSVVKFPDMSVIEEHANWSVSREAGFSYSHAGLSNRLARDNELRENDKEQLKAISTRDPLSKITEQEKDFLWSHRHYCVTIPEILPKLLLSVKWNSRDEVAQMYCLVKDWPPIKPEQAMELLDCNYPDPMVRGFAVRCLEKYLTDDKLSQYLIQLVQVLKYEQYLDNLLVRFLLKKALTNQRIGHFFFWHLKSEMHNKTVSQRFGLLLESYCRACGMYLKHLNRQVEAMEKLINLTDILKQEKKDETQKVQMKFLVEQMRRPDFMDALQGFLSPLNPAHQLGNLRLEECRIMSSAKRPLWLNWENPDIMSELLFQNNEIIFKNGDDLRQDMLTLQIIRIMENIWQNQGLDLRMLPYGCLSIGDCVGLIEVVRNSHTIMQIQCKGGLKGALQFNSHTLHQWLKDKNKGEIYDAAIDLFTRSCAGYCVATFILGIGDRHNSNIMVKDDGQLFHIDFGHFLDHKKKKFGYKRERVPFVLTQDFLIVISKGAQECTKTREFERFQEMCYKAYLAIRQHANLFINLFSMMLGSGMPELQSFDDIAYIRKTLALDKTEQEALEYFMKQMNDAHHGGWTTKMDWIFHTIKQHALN
Sequence of MAPK3 (human) (P27361 whole entry, looked up): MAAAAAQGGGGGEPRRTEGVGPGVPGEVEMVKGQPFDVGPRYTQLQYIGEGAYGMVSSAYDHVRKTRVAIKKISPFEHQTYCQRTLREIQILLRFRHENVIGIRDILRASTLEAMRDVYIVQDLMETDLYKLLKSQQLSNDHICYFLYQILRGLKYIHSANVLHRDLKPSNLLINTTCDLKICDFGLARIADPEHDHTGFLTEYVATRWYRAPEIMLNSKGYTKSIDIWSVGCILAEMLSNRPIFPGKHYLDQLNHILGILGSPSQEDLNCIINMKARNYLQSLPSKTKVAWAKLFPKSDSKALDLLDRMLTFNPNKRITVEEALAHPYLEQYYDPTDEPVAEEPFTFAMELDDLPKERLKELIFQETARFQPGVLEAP
Sequence of TAOK3 (human) (Q9H2K8 whole entry, looked up): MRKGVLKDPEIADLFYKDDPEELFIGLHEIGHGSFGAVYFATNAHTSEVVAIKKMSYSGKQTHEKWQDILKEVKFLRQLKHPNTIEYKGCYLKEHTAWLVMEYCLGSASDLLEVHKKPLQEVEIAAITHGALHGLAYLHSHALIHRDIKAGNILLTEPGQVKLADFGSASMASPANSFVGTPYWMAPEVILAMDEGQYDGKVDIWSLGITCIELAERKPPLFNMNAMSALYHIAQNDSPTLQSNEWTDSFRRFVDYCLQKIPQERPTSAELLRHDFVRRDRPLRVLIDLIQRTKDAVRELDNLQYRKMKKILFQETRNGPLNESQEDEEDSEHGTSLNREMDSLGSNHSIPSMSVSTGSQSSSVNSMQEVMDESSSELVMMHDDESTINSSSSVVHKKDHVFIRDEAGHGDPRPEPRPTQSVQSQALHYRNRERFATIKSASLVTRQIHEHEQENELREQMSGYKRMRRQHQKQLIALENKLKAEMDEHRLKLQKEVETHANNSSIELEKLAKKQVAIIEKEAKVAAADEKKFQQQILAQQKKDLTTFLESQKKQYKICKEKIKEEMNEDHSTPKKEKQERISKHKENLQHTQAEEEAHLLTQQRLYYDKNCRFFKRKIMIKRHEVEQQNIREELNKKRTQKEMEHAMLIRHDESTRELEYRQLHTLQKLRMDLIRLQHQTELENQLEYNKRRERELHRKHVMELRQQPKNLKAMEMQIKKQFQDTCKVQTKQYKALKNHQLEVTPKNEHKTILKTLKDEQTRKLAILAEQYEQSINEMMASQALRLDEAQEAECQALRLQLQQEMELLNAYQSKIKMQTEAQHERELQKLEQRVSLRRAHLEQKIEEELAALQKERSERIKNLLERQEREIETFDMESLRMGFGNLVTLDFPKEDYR
Sequence of ADCK3 (human) (Q8NI60 whole entry, looked up): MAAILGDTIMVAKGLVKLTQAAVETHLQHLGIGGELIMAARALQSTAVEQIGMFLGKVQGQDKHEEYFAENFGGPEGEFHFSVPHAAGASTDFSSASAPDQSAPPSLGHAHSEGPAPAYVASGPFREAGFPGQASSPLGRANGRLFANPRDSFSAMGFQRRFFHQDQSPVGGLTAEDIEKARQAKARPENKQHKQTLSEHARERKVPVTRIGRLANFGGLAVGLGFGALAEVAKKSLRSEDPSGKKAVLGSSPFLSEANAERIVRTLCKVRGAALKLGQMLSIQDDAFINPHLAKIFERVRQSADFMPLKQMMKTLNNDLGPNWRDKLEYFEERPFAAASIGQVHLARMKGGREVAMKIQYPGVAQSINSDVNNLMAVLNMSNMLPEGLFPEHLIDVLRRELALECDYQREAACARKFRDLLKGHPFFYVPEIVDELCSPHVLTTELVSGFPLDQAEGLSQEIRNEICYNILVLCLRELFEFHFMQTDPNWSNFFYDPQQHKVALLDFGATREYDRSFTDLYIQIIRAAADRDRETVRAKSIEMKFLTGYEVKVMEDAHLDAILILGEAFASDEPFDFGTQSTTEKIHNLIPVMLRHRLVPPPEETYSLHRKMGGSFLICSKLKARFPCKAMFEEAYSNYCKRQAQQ
Sequence of PIK3CA (human), P42336 [M1043I] (P42336 whole entry M1043I, looked up): as the sequence (P42336 whole entry E542K, looked up) above, with K542E, M1043I counted along it
Sequence of PIK3CA (human), P42336 [H1047L] (P42336 whole entry H1047L, looked up): as the sequence (P42336 whole entry E542K, looked up) above, with K542E, H1047L counted along it
Sequence of CRK2 (P.falciparum) (P61075 whole entry, looked up): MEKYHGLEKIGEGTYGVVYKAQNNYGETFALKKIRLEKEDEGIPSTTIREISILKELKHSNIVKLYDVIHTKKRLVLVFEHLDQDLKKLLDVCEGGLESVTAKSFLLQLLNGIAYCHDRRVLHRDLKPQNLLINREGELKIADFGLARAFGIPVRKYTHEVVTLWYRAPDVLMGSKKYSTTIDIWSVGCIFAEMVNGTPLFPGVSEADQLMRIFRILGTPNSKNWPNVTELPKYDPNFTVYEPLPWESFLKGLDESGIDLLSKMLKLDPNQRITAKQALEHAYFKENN

## COCCNCCCn1c(C(=O)CF)c(-c2ccc(C)cc2)c2c(N)ncnc21
[1]
  kinase still bound, per cent of control: 46%
[2]
  kinase still bound, per cent of control: 91%
[3]
  kinase still bound, per cent of control: 100%
[4]
  kinase still bound, per cent of control: 100%
[5]
  kinase still bound, per cent of control: 100%
[6]
  kinase still bound, per cent of control: 78%
[7]
  kinase still bound, per cent of control: 100%
[8]
  kinase still bound, per cent of control: 100%
[9]
  kinase still bound, per cent of control: 81%
[10]
  kinase still bound, per cent of control: 100%
[11]
  kinase still bound, per cent of control: 95%
[12]
  kinase still bound, per cent of control: 98%
[13]
  kinase still bound, per cent of control: 100%
[14]
  kinase still bound, per cent of control: 89%
[15]
  kinase still bound, per cent of control: 100%
[16]
  kinase still bound, per cent of control: 83%
[17]
  kinase still bound, per cent of control: 98%
[18]
  kinase still bound, per cent of control: 100%
[19]
  kinase still bound, per cent of control: 100%
[20]
  kinase still bound, per cent of control: 84%
[21]
  kinase still bound, per cent of control: 100%
[22]
  kinase still bound, per cent of control: 100%
[23]
  kinase still bound, per cent of control: 99%
[24]
  kinase still bound, per cent of control: 68%
[25]
  kinase still bound, per cent of control: 100%
[26]
  kinase still bound, per cent of control: 100%
[27]
  kinase still bound, per cent of control: 92%
[28]
  kinase still bound, per cent of control: 94%
[29]
  kinase still bound, per cent of control: 100%
[30]
  kinase still bound, per cent of control: 95%
[31]
  kinase still bound, per cent of control: 97%
[32]
  kinase still bound, per cent of control: 100%
[33]
  kinase still bound, per cent of control: 99%
[34]
  kinase still bound, per cent of control: 99%
[35]
  kinase still bound, per cent of control: 100%
[36]
  kinase still bound, per cent of control: 84%
[37]
  kinase still bound, per cent of control: 67%
[38]
  kinase still bound, per cent of control: 89%
[39]
  kinase still bound, per cent of control: 100%
[40]
  kinase still bound, per cent of control: 100%
[41]
  kinase still bound, per cent of control: 100%
[42]
  kinase still bound, per cent of control: 100%
